Results taken from US20090298936A1, “METHOD FOR ENERGIZING HUMAN BEINGS” (SYMRISE GmbH & Co. KG, priority 2008, published 2009).
Several values for one entry are separate records, joined by “and”; a condition that tells them apart may be missing. Equal entries are not always repeated.

Tested on: healthy human subjects (panelists)
Test: Sniff test with heartbeat measurement (finger clip Heart Rhythm Monitor, Freeze-Framer 2.0) on human panelists
Format: in vivo
Conditions: for energizing effect compared with Amarocite and the mixtures: solution in mineral oil
Description: In order to introduce compounds of group (a) or a sensory complex as described above into the nasal cavity that will occur using many types of products containing the sensory complex the following method of human testing and data collection was developed, standardized and used to collect and analyze data to substantiate the energizing effects of the sensory complex materials in group (a).
Data collection and analysis of each panelists's heart rate was made using a finger clip attachment for the Heart Rhythm Monitor using Freeze-Framer® 2.0 software from HeartMath®, 14700 West Park Avenue, Boulder Creek, Calif.
The test is divided into 3 parts: • 1) the pre-sniff-test period: places the panelist in a neutral state (15 min), • 2) the sniff-test period (5 min), • 3) the post-sniff-test period (10 min). Typically during each test session, three fragrances (single compound or mixture of compounds) are presented to the panelist, so one test lasts for one hour.

## COC(OC)C(C)(C)CC=C(C)C [Amarocite ®, 1,1-dimethoxy-2,2,5-trimethyl-4-hexene]
Individual panelists A-G, after inhalation, 1 wt.-% solution in mineral oil
  Heartbeat (bpm) After: 77 bpm and 81 bpm and 70 bpm and 78 bpm and 72 bpm and 71 bpm and 90 bpm
Individual panelists A-G, after minus before, 1 wt.-% solution in mineral oil
  Heartbeat (bpm) Difference: +9 bpm and +25 bpm and +6 bpm (2×) and +10 bpm and +12 bpm (2×)
Individual panelists A-G, before inhalation (baseline), 1 wt.-% solution in mineral oil
  Heartbeat (bpm) Before: 68 bpm (2×) and 56 bpm and 64 bpm and 60 bpm and 59 bpm and 84 bpm
Mean of panelists A-G, after inhalation, 1 wt.-% solution in mineral oil
  Heartbeat (bpm) After, Mean: 77 bpm
Mean of panelists A-G, after minus before, 1 wt.-% solution in mineral oil
  Heartbeat (bpm) Difference, Mean: +11.4 bpm
Mean of panelists A-G, before inhalation (baseline), 1 wt.-% solution in mineral oil
  Heartbeat (bpm) Before, Mean: 65.6 bpm
panelists, administered according to the protocol
  average heart rate increase: 17.3%

## CC(C)CCCC(C)CCO (stereo not drawn) [tetrahydrogeraniol]
0.8 wt.-% alone
  energizing effect compared with Amarocite and the mixtures: Stronger energizing effects

## CCCCCC1C(=O)CCC1CC(=O)OC (stereo not drawn) [methyl dihydro jasmonate]
2.0 wt.-% alone
  energizing effect compared with Amarocite and the mixtures: Stronger energizing effects
